Data taken from PubChem BioAssay (NCI).
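Step 1: Grow cells in 96-well plates. Step 2: Expose to compound for 48 hours at 5 concentrations. Step 3: Interpolate endpoints linearly; if unreached, use highest concentration. Definition used: TGI = concentration required for complete inhibition of growth.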

Key:
Assay in all cases: DTP human tumour cell line panel, 48 h
786-0 renal = system: 786-0 renal
A549 NSCLC = system: A549 NSCLC
ACHN renal = system: ACHN renal
CAKI-1 renal = system: CAKI-1 renal
CCRF-CEM leukemia = system: CCRF-CEM leukemia
COLO 205 colon = system: COLO 205 colon
DU-145 prostate = system: DU-145 prostate
EKVX NSCLC = system: EKVX NSCLC
HCC-2998 colon = system: HCC-2998 colon
HCT-116 colon = system: HCT-116 colon
HCT-15 colon = system: HCT-15 colon
HL-60(TB) leukemia = system: HL-60(TB) leukemia
HOP-62 NSCLC = system: HOP-62 NSCLC
HOP-92 NSCLC = system: HOP-92 NSCLC
HS 578T breast = system: HS 578T breast
HT29 colon = system: HT29 colon
IGROV1 ovarian = system: IGROV1 ovarian
K-562 leukemia = system: K-562 leukemia
KM12 colon = system: KM12 colon
M14 melanoma = system: M14 melanoma
MALME-3M melanoma = system: MALME-3M melanoma
MCF7 breast = system: MCF7 breast
MDA-MB-231 breast = system: MDA-MB-231 breast
MDA-MB-435 = system: MDA-MB-435
MDA-N = system: MDA-N
MOLT-4 leukemia = system: MOLT-4 leukemia
NCI-H226 lung = system: NCI-H226 lung
NCI-H23 lung = system: NCI-H23 lung
NCI-H460 lung = system: NCI-H460 lung
NCI-H522 lung = system: NCI-H522 lung
NCI/ADR-RES ovarian = system: NCI/ADR-RES ovarian
OVCAR-3 ovarian = system: OVCAR-3 ovarian
OVCAR-4 ovarian = system: OVCAR-4 ovarian
OVCAR-5 ovarian = system: OVCAR-5 ovarian
OVCAR-8 ovarian = system: OVCAR-8 ovarian
PC-3 prostate = system: PC-3 prostate
RPMI-8226 leukemia = system: RPMI-8226 leukemia
RXF 393 renal = system: RXF 393 renal
SF-268 CNS = system: SF-268 CNS
SF-295 CNS = system: SF-295 CNS
SF-539 CNS = system: SF-539 CNS
SK-MEL-2 melanoma = system: SK-MEL-2 melanoma
SK-MEL-28 melanoma = system: SK-MEL-28 melanoma
SK-MEL-5 melanoma = system: SK-MEL-5 melanoma
SK-OV-3 ovarian = system: SK-OV-3 ovarian
SN12C renal = system: SN12C renal
SNB-75 CNS = system: SNB-75 CNS
SR leukemia = system: SR leukemia
SW-620 colon = system: SW-620 colon
T-47D breast = system: T-47D breast
TK-10 renal = system: TK-10 renal
U251 CNS = system: U251 CNS
UACC-257 melanoma = system: UACC-257 melanoma
UACC-62 melanoma = system: UACC-62 melanoma
UO-31 renal = system: UO-31 renal
LOX IMVI melanoma = system: LOX IMVI melanoma
SNB-19 CNS = system: SNB-19 CNS

## O=C(O)c1cc2ccccc2c(N=Nc2ccc(S(=O)(=O)Nc3nccs3)cc2)c1O
786-0 renal
  TGI: > 100 µM
A549 NSCLC
  TGI: > 100 µM
ACHN renal
  TGI: > 100 µM
CAKI-1 renal
  TGI: > 100 µM
CCRF-CEM leukemia
  TGI: > 100 µM
COLO 205 colon
  TGI: > 100 µM
DU-145 prostate
  TGI: > 100 µM
EKVX NSCLC
  TGI: > 100 µM
HCC-2998 colon
  TGI: > 100 µM
HCT-116 colon
  TGI: > 100 µM
HCT-15 colon
  TGI: > 100 µM
HL-60(TB) leukemia
  TGI: > 100 µM
HOP-62 NSCLC
  TGI: > 100 µM
HOP-92 NSCLC
  TGI: > 100 µM
HS 578T breast
  TGI: > 100 µM
HT29 colon
  TGI: > 100 µM
IGROV1 ovarian
  TGI: > 100 µM
K-562 leukemia
  TGI: > 100 µM
KM12 colon
  TGI: > 100 µM
M14 melanoma
  TGI: > 100 µM
MALME-3M melanoma
  TGI: > 100 µM
MCF7 breast
  TGI: > 100 µM
MDA-MB-231 breast
  TGI: > 100 µM
MDA-MB-435
  TGI: > 100 µM
MDA-N
  TGI: > 100 µM
MOLT-4 leukemia
  TGI: > 100 µM
NCI-H226 lung
  TGI: > 100 µM
NCI-H23 lung
  TGI: > 100 µM
NCI-H460 lung
  TGI: > 100 µM
NCI-H522 lung
  TGI: > 100 µM
NCI/ADR-RES ovarian
  TGI: > 100 µM
OVCAR-3 ovarian
  TGI: > 100 µM
OVCAR-4 ovarian
  TGI: > 100 µM
OVCAR-5 ovarian
  TGI: > 100 µM
OVCAR-8 ovarian
  TGI: > 100 µM
PC-3 prostate
  TGI: > 100 µM
RPMI-8226 leukemia
  TGI: > 100 µM
RXF 393 renal
  TGI: > 100 µM
SF-268 CNS
  TGI: > 100 µM
SF-295 CNS
  TGI: > 100 µM
SF-539 CNS
  TGI: > 100 µM
SK-MEL-2 melanoma
  TGI: > 100 µM
SK-MEL-28 melanoma
  TGI: > 100 µM
SK-MEL-5 melanoma
  TGI: > 100 µM
SK-OV-3 ovarian
  TGI: > 100 µM
SN12C renal
  TGI: > 100 µM
SNB-75 CNS
  TGI: > 100 µM
SR leukemia
  TGI: > 100 µM
SW-620 colon
  TGI: > 100 µM
T-47D breast
  TGI: > 100 µM
TK-10 renal
  TGI: > 100 µM
U251 CNS
  TGI: > 100 µM
UACC-257 melanoma
  TGI: > 100 µM
UACC-62 melanoma
  TGI: > 100 µM
UO-31 renal
  TGI: > 100 µM

## Nc1ncnc2c1nnn2C1C=CC(COS(N)(=O)=O)C1 (stereo not given)
786-0 renal
  TGI: 33.3 µM
A549 NSCLC
  TGI: > 100 µM
ACHN renal
  TGI: 49.1 µM
CAKI-1 renal
  TGI: 12.2 µM
CCRF-CEM leukemia
  TGI: > 100 µM
COLO 205 colon
  TGI: 17.4 µM
DU-145 prostate
  TGI: > 100 µM
EKVX NSCLC
  TGI: > 100 µM
HCC-2998 colon
  TGI: 76.2 µM
HCT-116 colon
  TGI: 36.3 µM
HCT-15 colon
  TGI: > 100 µM
HL-60(TB) leukemia
  TGI: 17.1 µM
HOP-62 NSCLC
  TGI: > 100 µM
HS 578T breast
  TGI: 8.3 µM
HT29 colon
  TGI: 98.5 µM
IGROV1 ovarian
  TGI: > 100 µM
K-562 leukemia
  TGI: > 100 µM
KM12 colon
  TGI: 86.3 µM
LOX IMVI melanoma
  TGI: 17.8 µM
M14 melanoma
  TGI: 25 µM
MALME-3M melanoma
  TGI: > 100 µM
MCF7 breast
  TGI: > 100 µM
MDA-MB-231 breast
  TGI: > 100 µM
MDA-MB-435
  TGI: 41.3 µM
MDA-N
  TGI: 19 µM
MOLT-4 leukemia
  TGI: > 100 µM
NCI-H226 lung
  TGI: 42.1 µM
NCI-H23 lung
  TGI: 18.2 µM
NCI-H460 lung
  TGI: > 100 µM
NCI/ADR-RES ovarian
  TGI: > 100 µM
OVCAR-3 ovarian
  TGI: 96.1 µM
OVCAR-4 ovarian
  TGI: 62.3 µM
OVCAR-5 ovarian
  TGI: 49.3 µM
OVCAR-8 ovarian
  TGI: 55 µM
PC-3 prostate
  TGI: 26.9 µM
RPMI-8226 leukemia
  TGI: 50.7 µM
RXF 393 renal
  TGI: 86 µM
SF-268 CNS
  TGI: 93.6 µM
SF-295 CNS
  TGI: > 100 µM
SF-539 CNS
  TGI: 7.39 µM
SK-MEL-2 melanoma
  TGI: 21.4 µM
SK-MEL-28 melanoma
  TGI: 26.2 µM
SK-MEL-5 melanoma
  TGI: 15.9 µM
SK-OV-3 ovarian
  TGI: > 100 µM
SN12C renal
  TGI: > 100 µM
SNB-19 CNS
  TGI: 33.3 µM
SNB-75 CNS
  TGI: 39.3 µM
SR leukemia
  TGI: > 100 µM
SW-620 colon
  TGI: > 100 µM
T-47D breast
  TGI: 97.7 µM
TK-10 renal
  TGI: 36.4 µM
U251 CNS
  TGI: 57.7 µM
UACC-257 melanoma
  TGI: 62.6 µM
UACC-62 melanoma
  TGI: 35.4 µM
UO-31 renal
  TGI: 49 µM
